Experiments:
UISO cells (VN-MCC) = assay: qHTS cell viability (CellTiter-Glo, 72 h; primary and follow-up small molecule screen); format: cell-based, human
MCC13 cells (VN-MCC) = assay: as above; format: cell-based, human
WAGA cells (VP-MCC) = assay: as above; format: cell-based, human
[1] = tested on: six MCC cell lines and four control cell lines; assay: qHTS cell viability, all 10 cell lines screened; format: cell-based; settings: Control AUC minus MCC AUC (therapeutic window)
HEK293T cells = assay: qHTS cell viability (CellTiter-Glo, 72 h; primary screen), control cell line; format: cell-based, human
[2] = tested on: control cell lines (HACAT, HEK293T, CRL-7250, NIH-3T3); assay: qHTS cell viability, control cell lines as a group (mean AUC, Control.avg); format: cell-based; settings: mean AUC of control cell lines
MKL-2 cells (VP-MCC) = assay: qHTS cell viability (CellTiter-Glo, 72 h; primary and follow-up small molecule screen); format: cell-based, human
[3] = tested on: VP-MCC cell lines (WAGA, MKL-1, MKL-2); assay: qHTS cell viability, VP-MCC cell lines as a group (mean AUC, VP.MCC.avg); format: cell-based, human; settings: for VP-MCC_Avg_AUC: mean AUC of VP-MCC cell lines
CRL-7250 cells = assay: qHTS cell viability (CellTiter-Glo, 72 h; primary screen), control cell line; format: cell-based
[4] = tested on: MCC cell lines (WAGA, MKL-1, MKL-2, MCC13, MCC26, UISO); assay: qHTS cell viability, all six MCC cell lines as a group (mean AUC, MCC.avg); format: cell-based, human
HACAT cells = assay: qHTS cell viability (CellTiter-Glo, 72 h; primary screen), control cell line; format: cell-based, human
NIH-3T3 cells = assay: as above; format: cell-based, mouse
MKL-1 cells (VP-MCC) = assay: qHTS cell viability (CellTiter-Glo, 72 h; primary and follow-up small molecule screen); format: cell-based, human
MCC26 cells (VN-MCC) = assay: as above; format: cell-based, human
[5] = tested on: VN-MCC cell lines (MCC13, MCC26, UISO); assay: qHTS cell viability, VN-MCC cell lines as a group (mean AUC, VN.MCC.avg); format: cell-based, human; settings: for VN-MCC_Avg_AUC: mean AUC of VN-MCC cell lines
[6] = MIPE library, 11-point DRC, sheet S2E
[7] = MIPE library, 11-point DRC, control cell line, sheet S2E
[8] = MIPE library, Control AUC minus VP-MCC AUC (therapeutic window), sheet S2E
[9] = MIPE library, mean AUC of six MCC cell lines, sheet S2E
[10] = MIPE library, Control AUC minus VN-MCC AUC (therapeutic window), sheet S2E
[11] = NPC library, 8-point DRC, area under dose-response curve
[12] = NPC library, 8-point DRC, control cell line

CN(C)CC[C@H](CSc1ccccc1)Nc1ccc(S(=O)(=O)NC(=O)c2ccc(N3CCN(Cc4ccccc4-c4ccc(Cl)cc4)CC3)cc2)cc1[N+](=O)[O-] [ABT-737]
UISO_AUC (UISO cells (VN-MCC); [6]): 486.905
MCC13_AUC (MCC13 cells (VN-MCC); [6]): 474.092
WAGA_AUC (WAGA cells (VP-MCC); [6]): 285.196
Control-MCC ([1]; MIPE library, sheet S2E): 53.0346
HEK293T_AUC (HEK293T cells; [7]): 444.395
Control_Avg_AUC ([2]; MIPE library, sheet S2E): 443.245
MKL2_AUC (MKL-2 cells (VP-MCC); [6]): 288.506
Control-VP-MCC [3, 8]: 140.507
VP-MCC_Avg_AUC ([3]; MIPE library, sheet S2E): 302.738
CRL7250_AUC (CRL-7250 cells; [7]): 467.3
MCC_Avg_AUC [4, 9]: 390.211
HACAT_AUC (HACAT cells; [7]): 430.037
NIH3T3_AUC (NIH-3T3 cells; [7]): 431.249
MKL1_AUC (MKL-1 cells (VP-MCC); [6]): 334.511
MCC26_AUC (MCC26 cells (VN-MCC); [6]): 472.052
Control-VN-MCC [5, 10]: -34.4381
VN-MCC_Avg_AUC ([5]; MIPE library, sheet S2E): 477.683

COCC1(CO)C(=O)C2CCN1CC2 (stereo not shown) [APR-246]
UISO_AUC (UISO cells (VN-MCC); [6]): 425.775
MCC13_AUC (MCC13 cells (VN-MCC); [6]): 460.845
WAGA_AUC (WAGA cells (VP-MCC); [6]): 329.393
Control-MCC ([1]; MIPE library, sheet S2E): 36.6717
HEK293T_AUC (HEK293T cells; [7]): 390.353
Control_Avg_AUC ([2]; MIPE library, sheet S2E): 429.571
MKL2_AUC (MKL-2 cells (VP-MCC); [6]): 331.652
Control-VP-MCC [3, 8]: 94.289
VP-MCC_Avg_AUC ([3]; MIPE library, sheet S2E): 335.282
CRL7250_AUC (CRL-7250 cells; [7]): 448.778
MCC_Avg_AUC [4, 9]: 392.899
HACAT_AUC (HACAT cells; [7]): 475.968
NIH3T3_AUC (NIH-3T3 cells; [7]): 403.185
MKL1_AUC (MKL-1 cells (VP-MCC); [6]): 344.8
MCC26_AUC (MCC26 cells (VN-MCC); [6]): 464.929
Control-VN-MCC [5, 10]: -20.9457
VN-MCC_Avg_AUC ([5]; MIPE library, sheet S2E): 450.517

CSc1ccc2c(c1)N(CCC1CCCCN1C)c1ccccc1S2 (stereo not shown) [Thioridazine]
UISO_AUC (UISO cells (VN-MCC); [11]): 400.342
UISO_AUC (UISO cells (VN-MCC); NPC library, qHTS dose-response AUC, UISO): 400.342
UISO_AUC (UISO cells (VN-MCC); area under the dose-response curve, UISO cells, AUC<450 = reduced viability): 400.342
MCC13_AUC (MCC13 cells (VN-MCC); [11]): 405.187
MCC13_AUC (MCC13 cells (VN-MCC); NPC library, qHTS dose-response AUC, MCC13): 405.187
MCC13_AUC (MCC13 cells (VN-MCC); area under the dose-response curve, MCC13 cells, AUC<450 = reduced viability): 405.187
WAGA_AUC (WAGA cells (VP-MCC); [11]): 416.169
WAGA_AUC (WAGA cells (VP-MCC); NPC library, qHTS dose-response AUC, WAGA): 416.169
WAGA_AUC (WAGA cells (VP-MCC); area under the dose-response curve, WAGA cells, AUC<450 = reduced viability): 416.169
Control-MCC ([1]; NPC library): 60.2868
HEK293T_AUC (HEK293T cells; [12]): 452.051
HEK293T_AUC (HEK293T cells; NPC library, qHTS dose-response AUC, HEK293T control): 452.051
HEK293T_AUC (HEK293T cells; area under the dose-response curve, HEK293T control cells, AUC<450 = reduced viability): 452.051
Control_Avg_AUC ([2]; NPC library): 459.509
MKL2_AUC (MKL-2 cells (VP-MCC); [11]): 356.973
MKL2_AUC (MKL-2 cells (VP-MCC); NPC library, qHTS dose-response AUC, MKL2): 356.974
MKL2_AUC (MKL-2 cells (VP-MCC); area under the dose-response curve, MKL-2 cells, AUC<450 = reduced viability): 356.974
Control-VP-MCC ([3]; Control AUC minus VP-MCC AUC): 64.1836
Control-VP-MCC ([3]; NPC library, Control AUC minus VP-MCC AUC (therapeutic window)): 64.1836
CRL7250_AUC (CRL-7250 cells; [12]): 474.374
CRL7250_AUC (CRL-7250 cells; NPC library, qHTS dose-response AUC, CRL7250 control): 474.374
CRL7250_AUC (CRL-7250 cells; area under the dose-response curve, CRL7250 control cells, AUC<450 = reduced viability): 474.374
MCC_Avg_AUC ([4]; NPC library, mean AUC of all 6 MCC cell lines): 399.222
MCC_Avg_AUC ([4]; NPC library, mean AUC of six MCC cell lines): 399.222
HACAT_AUC (HACAT cells; [12]): 453.674
HACAT_AUC (HACAT cells; NPC library, qHTS dose-response AUC, HACAT control): 453.674
HACAT_AUC (HACAT cells; area under the dose-response curve, HACAT control cells, AUC<450 = reduced viability): 453.674
NIH3T3_AUC (NIH-3T3 cells; [12]): 457.937
NIH3T3_AUC (NIH-3T3 cells; NPC library, qHTS dose-response AUC, NIH3T3 control): 457.938
NIH3T3_AUC (NIH-3T3 cells; area under the dose-response curve, NIH3T3 control cells, AUC<450 = reduced viability): 457.938
MKL1_AUC (MKL-1 cells (VP-MCC); [11]): 412.834
MKL1_AUC (MKL-1 cells (VP-MCC); NPC library, qHTS dose-response AUC, MKL1): 412.834
MKL1_AUC (MKL-1 cells (VP-MCC); area under the dose-response curve, MKL-1 cells, AUC<450 = reduced viability): 412.834
MCC26_AUC (MCC26 cells (VN-MCC); [11]): 403.828
MCC26_AUC (MCC26 cells (VN-MCC); NPC library, qHTS dose-response AUC, MCC26): 403.828
MCC26_AUC (MCC26 cells (VN-MCC); area under the dose-response curve, MCC26 cells, AUC<450 = reduced viability): 403.828
Control-VN-MCC ([5]; Control AUC minus VN-MCC AUC): 56.3901
Control-VN-MCC ([5]; NPC library, Control AUC minus VN-MCC AUC (therapeutic window)): 56.3901
VN-MCC_Avg_AUC ([5]; NPC library): 403.119

Reference: PMC11822212, “High-throughput screening identifies Aurora kinase B as a critical therapeutic target for Merkel cell carcinoma” (Nature Communications, 2025)
